For 19 compounds, IC50 results are on record in US20180155344A1, “TRICYCLIC PIPERIDINE COMPOUNDS” (ACTELION PHARMACEUTICALS LTD, priority 2015, published 2018).

pIC50: −log10 of the molar value. Where a name gives a salt, the structure may show the parent alone.

As a reminder, the pIC50 is the IC50 on a negative log10 scale, so that one unit is a factor of ten. High values mean a small IC50, low ones a large IC50.

The target of this test is T1, human TPH1 (Homo sapiens, UniProt P17752).
T1 sequence (P17752 1-444): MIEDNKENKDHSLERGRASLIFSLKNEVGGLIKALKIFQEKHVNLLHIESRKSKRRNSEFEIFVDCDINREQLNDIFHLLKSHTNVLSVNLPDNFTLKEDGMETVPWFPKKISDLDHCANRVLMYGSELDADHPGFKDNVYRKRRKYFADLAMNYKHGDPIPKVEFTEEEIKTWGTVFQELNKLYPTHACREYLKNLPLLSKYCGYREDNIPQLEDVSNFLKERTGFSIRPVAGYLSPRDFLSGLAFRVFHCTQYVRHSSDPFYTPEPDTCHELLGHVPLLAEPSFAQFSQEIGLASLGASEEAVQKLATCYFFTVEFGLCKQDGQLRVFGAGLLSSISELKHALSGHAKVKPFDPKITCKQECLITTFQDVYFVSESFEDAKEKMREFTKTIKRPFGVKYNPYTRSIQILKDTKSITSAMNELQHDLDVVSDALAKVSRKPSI
In words: biochemical. An outline of the steps: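 Inhibition is derived from 5-hydroxy-L-tryptophan fluorescence (540 nm emission, 300 nm excitation) after perchloric acid stop, relative to DMSO vehicle. Recombinant full-length human enzyme (40-80 nM) reacts with 40 μM tryptophan plus 100 μM methyltetrahydropterin, pH 7.6 Tris/DTT/catalase, 15° C, 60 min.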
`COCc1ccc(C2c3c(nc4ccccn34)CCN2C(=O)COc2ccc(NS(C)(=O)=O)nc2Cl)c(F)c1` (stereo not shown) [Example 1.18.2, N-(6-chloro-5-(2-(1-(2-fluoro-4-(methoxymethyl)phenyl)-3,4-dihydroimidazo[1,2-a:5,4-c′]dipyridin-2(1H)-yl)-2-oxoethoxy)pyridin-2-yl)methanesulfonamide] had a pIC50 of 7.40.
Consider `CS(=O)(=O)Nc1ccc(OCC(=O)N2CCc3nc4ccccn4c3C2c2ccc(OC(F)(F)F)cc2F)c(Cl)n1` (stereo not shown) [Example 1.19.1, N-(6-chloro-5-(2-(1-(2-fluoro-4-(trifluoromethoxy)phenyl)-3,4-dihydroimidazo[1,2-a:5,4-c′]dipyridin-2(1H)-yl)-2-oxoethoxy)pyridin-2-yl)methanesulfonamide0.71], for which the pIC50 was 6.95.
For the compound `O=C(NC1CC1)c1ccc(OCC(=O)N2CCc3nc4ccccn4c3C2c2ccc(OC(F)(F)F)cc2F)c(Cl)n1` (stereo not shown) [Example 1.19.2, 6-chloro-N-cyclopropyl-5-(2-(1-(2-fluoro-4-(trifluoromethoxy)phenyl)-3,4-dihydroimidazo[1,2-a:5,4-c′]dipyridin-2(1H)-yl)-2-oxoethoxy)picolinamide], the negative-log IC50 (pIC50) was 7.74.
Take `CS(=O)(=O)Nc1ccc(OCC(=O)N2CCc3nc4ccccn4c3C2c2ccc(C#N)cc2F)c(Cl)n1` (stereo not shown) [Example 1.20.1, N-(6-chloro-5-(2-(1-(4-cyano-2-fluorophenyl)-3,4-dihydroimidazo[1,2-a:5,4-c′]dipyridin-2(1H)-yl)-2-oxoethoxy)pyridin-2-yl)methanesulfonamide]: the pIC50 is 7.01.
`N#Cc1ccc(C2c3c(nc4ccccn34)CCN2C(=O)COc2ccc(C(=O)NC3CC3)nc2Cl)c(F)c1` (stereo not shown) [Example 1.20.2, 6-chloro-5-(2-(1-(4-cyano-2-fluorophenyl)-3,4-dihydroimidazo[1,2-a:5,4-c′]dipyridin-2(1H)-yl)-2-oxoethoxy)-N-cyclopropylpicolinamide] gave a pIC50 of 7.51.
`COCCOc1ccc(C2c3c(nc4ccccn34)CCN2C(=O)COc2ccc(C(=O)NC3CC3)nc2Cl)c(F)c1` (stereo not shown) [Example 1.21.1, 6-chloro-N-cyclopropyl-5-(2-(1-(2-fluoro-4-(2-methoxyethoxy)phenyl)-3,4-dihydroimidazo[1,2-a:5,4-c′]dipyridin-2(1H)-yl)-2-oxoethoxy)picolinamide]: the negative logarithm of the IC50 (pIC50) was 7.27.
The result for `COCCOc1ccc(C2c3c(nc4ccccn34)CCN2C(=O)COc2ccc(NS(C)(=O)=O)nc2Cl)c(F)c1` (stereo not shown) [Example 1.21.2, N-(6-chloro-5-(2-(1-(2-fluoro-4-(2-methoxyethoxy)phenyl)-3,4-dihydroimidazo[1,2-a:5,4-c′]dipyridin-2(1H)-yl)-2-oxoethoxy)pyridin-2-yl)methanesulfonamide] reads 7.10; that for `O=C(NC1CC1)c1ccc(OCC(=O)N2CCc3nc4ccccn4c3C2c2ccc(OCCO)cc2F)c(Cl)n1` (stereo not shown) [Example 1.22.1, 6-chloro-N-cyclopropyl-5-(2-(1-(2-fluoro-4-(2-hydroxyethoxy)phenyl)-3,4-dihydroimidazo[1,2-a:5,4-c′]dipyridin-2(1H)-yl)-2-oxoethoxy)picolinamide], 7.10; that for `CS(=O)(=O)Nc1ccc(OCC(=O)N2CCc3nc4ccccn4c3C2c2ccc(OCCO)cc2F)c(Cl)n1` (stereo not shown) [Example 1.22.2, N-(6-Chloro-5-(2-(1-(2-fluoro-4-(2-hydroxyethoxy)phenyl)-3,4-dihydroimidazo[1,2-a:5,4-c′]dipyridin-2(1H)-yl)-2-oxoethoxy)pyridin-2-yl)methanesulfonamide], 7.42.
`COc1ccc(C2c3c(nc4cc(Cl)ccn34)CCN2C(=O)COc2ccc3ccccc3c2)cc1OC` (stereo not shown) [Example 2.1.1, 1-(7-chloro-1-(3,4-dimethoxyphenyl)-3,4-dihydroimidazo[1,2-a:5,4-c′]dipyridin-2(1H)-yl)-2-(naphthalen-2-yloxy)ethan-1-one hydrochloride] had a pIC50 of 7.41.
As to `COc1ccc(C2c3c(nc4cc(Cl)ccn34)CCN2C(=O)COc2ccc(CN3CCOCC3)cc2Cl)cc1OC` (stereo not shown) [Example 2.1.2, 1-(7-chloro-1-(3,4-dimethoxyphenyl)-3,4-dihydroimidazo[1,2-a:5,4-c′]dipyridin-2(1H)-yl)-2-(2-chloro-4-(morpholinomethyl)phenoxy)ethan-1-one], the pIC50 is 7.18.
The result for `COc1ccc(C2c3c(nc4cc(Cl)ccn34)CCN2C(=O)COc2ccc(CO)cc2Cl)cc1OC` (stereo not shown) [Example 2.1.3, 1-(7-chloro-1-(3,4-dimethoxyphenyl)-3,4-dihydroimidazo[1,2-a:5,4-c′]dipyridin-2(1H)-yl)-2-(2-chloro-4-(hydroxymethyl)phenoxy)ethan-1-one] reads 6.40; that for `COc1ccc(C2c3c(nc4cc(Cl)ccn34)CCN2C(=O)COc2ccc([N+](=O)[O-])cc2Cl)cc1OC` (stereo not shown) [Example 2.1.4, 1-(7-chloro-1-(3,4-dimethoxyphenyl)-3,4-dihydroimidazo[1,2-a:5,4-c′]dipyridin-2(1H)-yl)-2-(2-chloro-4-nitrophenoxy)ethan-1-one], 6.41; that for `COc1ccc(C2c3c(nc4cc(Cl)ccn34)CCN2C(=O)COc2ccc(CN3CCOCC3)nc2Cl)cc1OC` (stereo not shown) [Example 2.1.5, 1-(7-chloro-1-(3,4-dimethoxyphenyl)-3,4-dihydroimidazo[1,2-a:5,4-c′]dipyridin-2(1H)-yl)-2-((2-chloro-6-(morpholinomethyl)pyridin-3-yl)oxy)ethan-1-one], 6.50.
With `COc1ccc(C2c3c(nc4cc(Cl)ccn34)CCN2C(=O)COc2ccc(Cl)cc2Cl)cc1OC` (stereo not shown) [Example 2.1.6, 1-(7-chloro-1-(3,4-dimethoxyphenyl)-3,4-dihydroimidazo[1,2-a:5,4-c′]dipyridin-2(1H)-yl)-2-(2,4-dichlorophenoxy)ethan-1-one], the pIC50 was 7.28.
In turn, `COc1ccc(C2c3c(nc4cc(Cl)ccn34)CCN2C(=O)COc2ccc(N3CCOCC3)cc2Cl)cc1OC` (stereo not shown) [Example 2.1.7, 1-(7-chloro-1-(3,4-dimethoxyphenyl)-3,4-dihydroimidazo[1,2-a:5,4-c′]dipyridin-2(1H)-yl)-2-(2-chloro-4-morpholinophenoxy)ethan-1-one] gave a negative logarithm of the IC50 (pIC50) of 7.47. This pIC50 and that of the compound before are within 0.2 log units of each other.
As to `O=C(COc1ccc(CN2CCOCC2)cc1Cl)N1CCc2nc3cc(Cl)ccn3c2C1c1cccnc1F` (stereo not shown) [Example 2.2.1, 1-(7-chloro-1-(2-fluoropyridin-3-yl)-3,4-dihydroimidazo[1,2-a:5,4-c′]dipyridin-2(1H)-yl)-2-(2-chloro-4-(morpholinomethyl)phenoxy)ethan-1-one], the negative logarithm of the IC50 (pIC50) is 6.57.
The result for `O=C(COc1ccc(N2CCOCC2)cc1Cl)N1CCc2nc3cc(Cl)ccn3c2[C@H]1c1cccnc1F` [Example 2.2.2, 1-((1R)-7-chloro-1-(2-fluoropyridin-3-yl)-3,10a-dihydroimidazo[1,2-a:5,4-c′]dipyridin-2(1H)-yl)-2-(2-chloro-4-morpholinophenoxy)ethan-1-one] reads 6.91; that for `COc1ccc(C2c3c(nc4cc(Cl)ccn34)CCN2C(=O)COc2ccc(CN3CCOCC3)cc2Cl)c(F)c1` (stereo not shown) [Example 2.3.1, 1-(7-chloro-1-(2-fluoro-4-methoxyphenyl)-3,4-dihydroimidazo[1,2-a:5,4-c′]dipyridin-2(1H)-yl)-2-(2-chloro-4-(morpholinomethyl)phenoxy)ethan-1-one], 8.10.
